The target in experiment [1] is T1, PCSK9 (Homo sapiens, UniProt Q8NBP7). The experiment is described as follows: Fluorescence polarization competition binding assay (probe: compound of Example 57). The settings on record: 2 μM PCSK9, 50 nM compound of Example 57 as probe, overnight incubation; read-out: FP IC. In outline:
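Competition fluorescence-polarization binding: 2 μM PCSK9 with 50 nM fluorescent probe in 20 mM HEPES pH 7.5, 150 mM NaCl, 1 mM CaCl2, 0.005% P-20, incubated with test compound overnight in the dark. Anisotropy read; % inhibition relative to DMSO wells and probe-without-PCSK9 wells.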

In experiment [2] the target is T1, PCSK9. The experiment is described as follows: Differential scanning calorimetry (DSC) assay, direct binding / thermal stabilization of PCSK9. The settings on record: Tm(with compound)−Tm(no compound); 2 μM PCSK9, 300 μM test compound. In outline:
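Thermal stabilization of 2 μM PCSK9 with or without 300 μM compound in 25 mM HEPES pH 7.5, 150 mM NaCl, 1 mM CaCl2, 3.75% DMSO. Sample heated 20–80 °C at 200 °C/hr against buffer reference. Protein Tm derived from each thermogram.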

Molecules are shown by their SMILES.

T1 sequence (Q8NBP7 153-692): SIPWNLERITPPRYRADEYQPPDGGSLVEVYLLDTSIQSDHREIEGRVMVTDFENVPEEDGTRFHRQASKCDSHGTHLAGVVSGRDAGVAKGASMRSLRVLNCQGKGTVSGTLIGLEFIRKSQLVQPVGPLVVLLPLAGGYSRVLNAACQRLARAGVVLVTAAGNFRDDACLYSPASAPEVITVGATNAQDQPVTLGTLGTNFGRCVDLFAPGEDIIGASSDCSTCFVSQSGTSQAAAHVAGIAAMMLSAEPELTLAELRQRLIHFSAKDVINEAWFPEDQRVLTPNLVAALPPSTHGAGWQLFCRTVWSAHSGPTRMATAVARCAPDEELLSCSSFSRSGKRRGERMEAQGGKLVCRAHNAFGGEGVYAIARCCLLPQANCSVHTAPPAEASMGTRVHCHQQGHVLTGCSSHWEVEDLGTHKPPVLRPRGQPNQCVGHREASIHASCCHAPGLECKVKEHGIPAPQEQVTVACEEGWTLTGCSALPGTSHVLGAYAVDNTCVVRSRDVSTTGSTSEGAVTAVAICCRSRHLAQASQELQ

As for `C[C@]1(CC(=O)Nc2nccs2)NCCc2cc(OCc3ccccn3)c(Oc3ccc(C(=O)O)c(F)c3)cc21` [Example 65, (R)-2-fluoro-4-((1-methyl-1-(2-oxo-2-(thiazol-2-ylamino)ethyl)-6-(pyridin-2-ylmethoxy)-1,2,3,4-tetrahydroisoquinolin-7-yl)oxy)benzoic acid], the IC50 at PCSK9 [1] was 299 nM. In addition, the ΔTm at 300 µM at PCSK9 [2] worked out at 7.31 °C.

Consider `C[C@]1(CC(=O)Nc2nccs2)NCCc2cc(OCC3CCCCO3)c(Oc3ccc(C(=O)O)c(F)c3)cc21` (stereo partly drawn) [Example 66, 2-fluoro-4-(((1R)-1-methyl-1-(2-oxo-2-(thiazol-2-ylamino)ethyl)-6-((tetrahydro-2H-pyran-2-yl)methoxy)-1,2,3,4-tetrahydroisoquinolin-7-yl)oxy)benzoic acid], for which the IC50 at PCSK9 [1] turned out to be 395 nM. Also, the “DSC ΔTm” value on PCSK9 [2] came to 9.14 °C.

Regarding `C[C@]1(CC(=O)Nc2nccs2)NCCc2cc(OCC3CCCO3)c(Oc3ccc(C(=O)O)cc3)cc21` (stereo partly drawn) [Example 67, 4-(((1R)-1-methyl-1-(2-oxo-2-(thiazol-2-ylamino)ethyl)-6-((tetrahydrofuran-2-yl)methoxy)-1,2,3,4-tetrahydroisoquinolin-7-yl)oxy)benzoic acid], the IC50 on PCSK9 [1] came to 420 nM. The ΔTm at 300 µM on PCSK9 [2] was determined as 7.31 °C.

Consider `C[C@]1(CC(=O)Nc2nccs2)NCCc2cc(OCc3ncccn3)c(Oc3ccc(C(=O)O)c(F)c3)cc21` [Example 68, (R)-2-fluoro-4-((1-methyl-1-(2-oxo-2-{thiazol-2-ylamino)ethyl)-6-(pyrimidin-2-ylmethoxy)-1,2,3,4-tetrahydroisoquinolin-7-yl)oxy)benzoic acid], for which the IC50 on PCSK9 [1] came to 477 nM. The ΔTm at 300 µM at PCSK9 [2] came to 7.56 °C.

As to `COCCOc1cc2c(cc1Oc1ccc(C(=O)O)cc1)[C@@](C)(CC(=O)Nc1nccs1)NCC2` [Example 69, (R)-4-((6-(2-methoxyethoxy)-1-methyl-1-(2-oxo-2-(thiazol-2-ylamino)ethyl)-1,2,3,4-tetrahydroisoquinolin-7-yl)oxy)benzoic acid], at PCSK9 [1], the IC50 amounted to 541 nM. Moreover, the shift in melting temperature (ΔTm) at 300 µM at PCSK9 [2] was determined as 7.65 °C.

With `COC(=O)c1ccc(Oc2cc3c(cc2OCc2ncccn2)CCN[C@]3(C)CC(=O)Nc2nccs2)cc1F` [Example 71, methyl (R)-2-fluoro-4-((1-methyl-1-(2-oxo-2-(thiazol-2-ylamino)ethyl)-6-(pyrimidin-2-ylmethoxy)-1,2,3,4-tetrahydroisoquinolin-7-yl)oxy)benzoate], at PCSK9 [1], the IC50 worked out at 645 nM. Besides, the ΔTm at 300 µM at PCSK9 [2] was determined as 6.36 °C.

`COC(=O)c1ccc(Oc2cc3c(cc2OCC2CCCCO2)CCN[C@]3(C)CC(=O)Nc2nccs2)cc1F` (stereo partly drawn) [Example 72, methyl 2-fluoro-4-(((1R)-1-methyl-1-(2-oxo-2-(thiazol-2-ylamino)ethyl)-6-((tetrahydro-2H-pyran-2-yl)methoxy)-1,2,3,4-tetrahydroisoquinolin-7-yl)oxy)benzoate]: the IC50 on PCSK9 [1] was 680 nM. Moreover, the ΔTm at 300 µM at PCSK9 [2] was determined as 6.15 °C.

Regarding `Cn1nccc1NC(=O)c1ccc(Oc2cc3c(cc2OCC2CCCCO2)CCN[C@]3(C)CC(=O)Nc2nccs2)cc1F` (stereo partly drawn) [Example 73, 2-fluoro-4-(((1R)-1-methyl-1-(2-oxo-2-(thiazol-2-ylamino)ethyl)-6-((tetrahydro-2H-pyran-2-yl)methoxy)-1,2,3,4-tetrahydroisoquinolin-7-yl)oxy)-N-(1-methyl-1H-pyrazol-5-yl)benzamide], the IC50 on PCSK9 [1] amounted to 632 nM. In addition, the thermal shift (ΔTm) at 300 µM on PCSK9 [2] was 6.66 °C.

Turning to `C[C@]1(CC(=O)Nc2nccs2)NCCc2cc(OCC3CCCCO3)c(Oc3ccc(C(=O)Nc4n[nH]c5ncccc45)c(F)c3)cc21` (stereo partly drawn) [Example 74, 2-fluoro-4-(((1R)-1-methyl-1-(2-oxo-2-(thiazol-2-ylamino)ethyl)-6-((tetrahydro-2H-pyran-2-yl)methoxy)-1,2,3,4-tetrahydroisoquinolin-7-yl)oxy)-N-(1H-pyrazolo[3,4-b]pyridin-3-yl)benzamide], the IC50 at PCSK9 [1] stood at 790 nM. Besides, at PCSK9 [2], the thermal shift (ΔTm) at 300 µM is 7.08 °C.

The values above are taken from US11008313B2, “Substituted 1-methyl-1,2,3,4-tetrahydroisoquinoline molecules as PCSK9 allosteric binders” (Merck Sharp & Dohme Corp., priority 2016, dated 2021).
